ChEMBL document CHEMBL4270488, “Antibacterial Compounds from Marine Bacteria, 2010-2015” (J Nat Prod, 2017)
In brackets after ≈: the same amount, converted by molar mass.

How the values were obtained:
Staphylococcus aureus [1] = assay: Antibacterial activity against Staphylococcus aureus incubated for 24 hrs by standard broth dilution assay; assay type: functional
Bacillus subtilis [2] = assay: Antibacterial activity against Bacillus subtilis incubated for 24 hrs by standard broth dilution assay; assay type: functional
Pseudomonas aeruginosa = assay: Antibacterial activity against Pseudomonas aeruginosa incubated for 24 hrs by standard broth dilution assay; assay type: functional
Escherichia coli [3] = assay: Antibacterial activity against Escherichia coli incubated for 24 hrs by standard broth dilution assay; assay type: functional
[4] = tested on: Staphylococcus epidermidis; assay: Antibacterial activity against Staphylococcus epidermidis DSM 20044 incubated for 5 hrs by resazurin dye reduction based assay; assay type: functional, organism-based; conditions: DSM 20044, 5 h
Bacillus subtilis [5] = assay: Antibacterial activity against Bacillus subtilis DSM 347 incubated for 5 hrs by resazurin dye reduction based assay; assay type: functional, organism-based; conditions: DSM 347, 5 h
Bacillus subtilis [6] = assay: Antibacterial activity against Bacillus subtilis CMCC63501; assay type: functional
Staphylococcus aureus [7] = assay: Antibacterial activity against Staphylococcus aureus ATCC 29213; assay type: functional
Bacillus subtilis [8] = assay: Antibacterial activity against Bacillus subtilis ATCC […] incubated for 16 hrs; assay type: functional
[9] = tested on: Mycobacterium tuberculosis; assay: Antibacterial activity against Mycobacterium tuberculosis H37Rv ATCC 27294 incubated […]; assay type: functional
[10] = tested on: Staphylococcus haemolyticus; assay: Antibacterial activity against Staphylococcus haemolyticus UST950701-004 measured after overnight incubation by microdilution method; assay type: functional
Staphylococcus aureus [11] = assay: Antibacterial activity against methicillin-resistant Staphylococcus aureus ATCC 43300 measured after overnight incubation by microdilution method; assay type: functional
Bacillus subtilis [12] = assay: Antibacterial activity against Bacillus subtilis 769 measured after overnight incubation by microdilution method; assay type: functional
Staphylococcus aureus [13] = assay: Antibacterial activity against Staphylococcus aureus UST950701-005 measured after overnight incubation by microdilution method; assay type: functional
[14] = Inhibition of Staphylococcus aureus RNA polymerase
Haemophilus influenzae = assay: Antibacterial activity against Haemophilus influenzae ATCC 49247 by broth microdilution assay; assay type: functional
Enterococcus faecalis = assay: Antibacterial activity against Enterococcus faecalis ATCC 19433 by broth microdilution assay; assay type: functional
[15] = Inhibition of Escherichia coli RNA polymerase
Escherichia coli [16] = assay: Antibacterial activity against Escherichia coli D21f2tolC by broth microdilution assay; assay type: functional
Enterococcus faecium [17] = assay: Antibacterial activity against Enterococcus faecium CTC 492 incubated for 18 hrs by WST1 assay; assay type: functional; conditions: CTC 492, 18 h
Enterococcus faecium [18] = assay: Antibacterial activity against Enterococcus faecium CCUG 37832 incubated for 18 hrs by WST1 assay; assay type: functional; conditions: CCUG 37832, 18 h

## C[C@@H]1CCC/C=C/[C@@H]2O[C@@H](C/C=C\C=C\[C@H](O[C@@H]3O[C@H](CO)[C@@H](O)[C@H](O)[C@H]3O)C/C=C/C=C\C(=O)O1)C[C@@H](O)[C@H]2O
Staphylococcus aureus [1]
  MIC: 0.02 to 0.13 µg/mL (≈ 0.0344 to 0.224 µM)
Bacillus subtilis [2]
  MIC: 0.02 to 0.13 µg/mL (≈ 0.0344 to 0.224 µM)
Pseudomonas aeruginosa
  MIC: 0.02 to 0.13 µg/mL (≈ 0.0344 to 0.224 µM)
Escherichia coli [3]
  MIC: 0.02 to 0.13 µg/mL (≈ 0.0344 to 0.224 µM)

## CCC(C)CCC[C@H](C(=O)OC)[C@@H](O)c1cccc2nc3c(C(=O)OC)cccc3nc12 (stereo not given in full)
[4]
  IC50: 3.6 µg/mL (≈ 8.21 µM)
Bacillus subtilis [5]
  IC50: 3.6 µg/mL (≈ 8.21 µM)

## CCC(C)CCC[C@H](C(=O)OC)[C@@H](O)c1cccc2nc3c(C(=O)O)cccc3nc12 (stereo not given in full)
[4]
  IC50: 6.1 µg/mL (≈ 14.4 µM)
Bacillus subtilis [5]
  IC50: 9.1 µg/mL (≈ 21.4 µM)

## CC1(C)S[C@@H]2[C@H](NC(=O)[C@H](N)c3ccccc3)C(=O)N2[C@H]1C(=O)O [AMPICILLIN]
Bacillus subtilis [6]
  MIC: 1.6 to 3.1 µg/mL (≈ 4.58 to 8.87 µM)

## COC(=O)N[C@H]1[C@@H](C)O[C@@H](O[C@H]2C/C=C(\C)[C@@H]3C=C[C@@H]4[C@@H](O[C@H]5C[C@@H](O[C@H]6C[C@@H](O)[C@@H](O[C@@H]7C[C@@H](O)[C@@H](OC)[C@H](C)O7)[C@H](C)O6)[C@@H](O)[C@H](C)O5)[C@@H](C)C[C@H](C)[C@H]4[C@]3(C)C(=O)C3=C(O)[C@@]4(C[C@@H](C)C(C=O)=C[C@H]4/C=C/2C)OC3=O)C[C@]1(C)[N+](=O)[O-]
Staphylococcus aureus [7]
  MIC: 6.2 to 50 µg/mL (≈ 5.23 to 42.2 µM)
Bacillus subtilis [6]
  MIC: 1.6 to 3.1 µg/mL (≈ 1.35 to 2.62 µM)

## COC(=O)N[C@H]1[C@@H](C)O[C@@H](O[C@H]2C/C=C(\C)[C@@H]3C=C[C@@H]4[C@@H](O[C@H]5C[C@@H](O[C@H]6C[C@@H](O)[C@@H](O[C@@H]7C[C@@H](O)[C@@H](OC)[C@H](C)O7)[C@H](C)O6)[C@@H](O)[C@H](C)O5)[C@@H](C)C[C@H](C)[C@H]4[C@]3(C)C(=O)C3=C(O)[C@@]4(C[C@@H](C)C(CO)=C[C@H]4/C=C/2C)OC3=O)C[C@]1(C)N
Bacillus subtilis [8]
  MIC: 1.5 to 12 µg/mL (≈ 1.3 to 10.4 µM)
[9]
  MIC: 16 to 32 µg/mL (≈ 13.8 to 27.6 µM)

## COc1ccc2oc3c4c(c(O)c(O)c3c(=O)c2c1O)CCc1cc2c(c(O)c1-4)C(=O)N1[C@@](C)(C2)OC(=O)[C@]1(C)CO
[10]
  MIC: ≤ 1 µg/mL
Staphylococcus aureus [11]
  MIC: ≤ 1 µg/mL
Bacillus subtilis [12]
  MIC: ≤ 1 µg/mL
Staphylococcus aureus [13]
  MIC: ≤ 1 µg/mL

## C[C@@H]1CCC/C=C/[C@@H]2O[C@H](C[C@@H](O)C/C=C\C=C\[C@H](O[C@@H]3O[C@H](CO)[C@@H](O)[C@H](O)[C@H]3O)C/C=C/C=C\C(=O)O1)[C@H]2O
Staphylococcus aureus [1]
  MIC: 0.02 to 0.13 µg/mL (≈ 0.0344 to 0.224 µM)
Bacillus subtilis [2]
  MIC: 0.02 to 0.13 µg/mL (≈ 0.0344 to 0.224 µM)
Pseudomonas aeruginosa
  MIC: 0.02 to 0.13 µg/mL (≈ 0.0344 to 0.224 µM)
Escherichia coli [3]
  MIC: 0.02 to 0.13 µg/mL (≈ 0.0344 to 0.224 µM)

## CC[C@H](C)[C@H]1NC(=O)[C@@H](NC(=O)[C@H](C)[C@H](O)C(C)C)[C@@H](C)OC(=O)[C@H]2NC(=O)[C@@H](C(C)C)NC(=O)[C@@H](Cc3ccccc3)N(C)C(=O)[C@@H](NC1=O)c1ccc(cc1)O[C@H](C)[C@@](O)(CO)/C=C\C(=O)NCC(=O)O2
[14]
  IC50: 200 to 4000 nM
Haemophilus influenzae
  MIC: 12 µg/mL (≈ 11.7 µM)
Enterococcus faecalis
  MIC: 12 µg/mL (≈ 11.7 µM)
[15]
  IC50: 200 to 2000 nM
Escherichia coli [16]
  MIC: 0.2 µg/mL (≈ 0.196 µM)

## CCCCCCCCCCCC(=O)N(CCO)CCO
Staphylococcus aureus [1]
  MIC: 0.02 to 0.13 µg/mL (≈ 0.0696 to 0.452 µM)
Bacillus subtilis [2]
  MIC: 0.02 to 0.13 µg/mL (≈ 0.0696 to 0.452 µM)
Pseudomonas aeruginosa
  MIC: 0.02 to 0.13 µg/mL (≈ 0.0696 to 0.452 µM)
Escherichia coli [3]
  MIC: 0.02 to 0.13 µg/mL (≈ 0.0696 to 0.452 µM)

## COC(=O)N[C@H]1[C@@H](C)O[C@@H](O[C@H]2C/C=C(\C)[C@@H]3C=C[C@@H]4[C@@H](O[C@H]5C[C@@H](O[C@H]6C[C@@H](O)[C@@H](O[C@@H]7C[C@@H](O)[C@@H](OC)[C@H](C)O7)[C@H](C)O6)[C@@H](O)[C@H](C)O5)[C@@H](C)C[C@H](C)[C@H]4[C@]3(C)C(=O)C3=C(O)[C@@]4(C[C@@H](C)C(CO)=C[C@H]4/C=C/2C)OC3=O)C[C@]1(C)[N+](=O)[O-]
Bacillus subtilis [8]
  MIC: 1.5 to 12 µg/mL (≈ 1.26 to 10.1 µM)
[9]
  MIC: 16 to 32 µg/mL (≈ 13.5 to 27 µM)
Bacillus subtilis [6]
  MIC: 1.6 to 3.1 µg/mL (≈ 1.35 to 2.61 µM)

## [O-][n+]1c2cccc(O)c2[n+]([O-])c2cccc(O)c21
Enterococcus faecium [17]
  MIC: 0.35 µg/mL (≈ 1.43 µM)
Enterococcus faecium [18]
  MIC: 0.7 µg/mL (≈ 2.87 µM)
